Experimental findings from patent EP0392666A2, “Anti-HIV compositions” (JOHNSON MATTHEY PUBLIC LIMITED COMPANY, priority 1989, dated 1990) are described below.

In brackets after ≈: the same amount, converted by molar mass. Where two headings read alike, the source gives them in different places.

Data set [1] in a line: Cytotoxicity by MTT method in MT-4 cells. Type of data set: cell-based, human. The conditions noted are these: human, mt-4 cells, read-out: CD₅₀. The method, then:
(§1) The compounds of the invention were tested in a screen by the MTT method (J. Virol. Methods 120: 309-321 [1988]). MT-4 cells (2.5 x 10⁴ /well) were infected with HIV-1 (HTLV-IIIB) or HIV-2 (LAV-2 ROD) at a concentration of 100 CCID₅₀ and incubated in the presence of various concentrations of the test compounds, which were added immediately after infection with the virus. After 5 days culture at 37°C in a CO₂ incubator, the number of viable cells was assessed by the MTT (tetrazolium) method. […] The potential therapeutic usefulness was assessed by calculating a Selectivity Index (SI) corresponding to the ratio of CD₅₀ to ED₅₀. A control test was performed using the known anti-HIV treatment AZT.

For another data set, the system named is HIV-1 (HTLV-IIIB). Kind of data set: microbe, parasite or virus in culture. The note with it: for EC50: Human immunodeficiency virus 1, MT4, 120 h, read-out: ED₅₀; for SI: Selectivity Index, ratio of CD₅₀ to ED₅₀, HIV-1, 7200 min. Type of data set: cell-based. The procedure: as §1
The next data set concerns HIV-2 (LAV-2 ROD). Kind of data set: MTT method anti-HIV screen in MT-4 cells infected with HIV-2. Type of data set: cell-based. The note with it: for EC50: Human immunodeficiency virus 2, MT4, 120 h, read-out: ED₅₀; for EC50 / ED₅₀: antiviral activity, MT-4 cells infected with HIV-2 (LAV-2 ROD) at 100 CCID₅₀, 5 days; for SI: Selectivity Index, ratio of CD₅₀ to ED₅₀, HIV-2, 7200 min. The method, then: as §1

Another data set deals with MT-4 cells. The data set can be described thus: Cytotoxicity by MTT method in MT-4 cells. The class given is cell-based, human. The method, then:
as §1

Where [2] appears, read: antiviral activity, MT-4 cells infected with HIV-1 (HTLV-IIIB) at 100 CCID₅₀, 5 days.

`C1CCNCCCNCCNCCCNC1` [C, 1,4,8,13-tetrazacyclohexadecane. 4HCl]: the CC50 at 120 h in data set [1] (HIV-1, 5 days culture at 37°C) is 334 µg/mL; in data set [1] (HIV-2, 5 days culture at 37°C), 341 µg/mL. Also, the EC50 with HIV-1 (HTLV-IIIB) (setting [2]) is 18.8 µg/mL; in the data set on HIV-2 (LAV-2 ROD) it was over 500 µg/mL. Moreover, the SI in the data set with HIV-1 (HTLV-IIIB) was 18; in the data set with HIV-2 (LAV-2 ROD), under 1.
`C1CNCCNCCNCCNCCN1` [F, 1,4,7,10,13-pentazacyclopentadecane]: the CC50 at 120 h in data set [1] (HIV-1, 5 days culture at 37°C) was 3.36 µg/mL (≈ 15.6 µM); in data set [1] (HIV-2, 5 days culture at 37°C), 6.03 µg/mL (≈ 28 µM). Further, the EC50 with HIV-1 (HTLV-IIIB) (setting [2]) and in the data set with HIV-2 (LAV-2 ROD) was over 8 µg/mL in each case. Also, the SI in the data set on HIV-1 (HTLV-IIIB) and in the data set with HIV-2 (LAV-2 ROD) was under 1 each time.
As for `CC1CC(C)(C)NCCNC(C)CC(C)(C)NCCN1` (stereo not shown) [I, 5,5,7,12,12,14-hexamethyl-cyclam], the CC50 at 120 h in data set [1] (HIV-1, 5 days culture at 37°C) was found to be 432 µg/mL (≈ 1520 µM); in data set [1] (HIV-2, 5 days culture at 37°C), 419 µg/mL (≈ 1470 µM). Besides, the EC50 with HIV-1 (HTLV-IIIB) (setting [2]) is 197 µg/mL (≈ 692 µM); with HIV-2 (LAV-2 ROD), over 1000 µg/mL. Besides, the SI is 2 in the data set with HIV-1 (HTLV-IIIB) and under 1 with HIV-2 (LAV-2 ROD).
Regarding `C1CNCCCNCCNCCCNC1` [B, 1,4,8,12-tetrazacyclopentadecane], the CC50 at 120 h in data set [1] (HIV-1, 5 days culture at 37°C) amounted to 460 µg/mL (≈ 2140 µM); in data set [1] (HIV-2, 5 days culture at 37°C), 487 µg/mL (≈ 2270 µM). In addition, the EC50 was determined as 30.3 µg/mL (≈ 141 µM) in the data set with HIV-1 (HTLV-IIIB) (setting [2]) and 40.4 µg/mL (≈ 188 µM) in the data set on HIV-2 (LAV-2 ROD). The figures for the SI in the data set on HIV-1 (HTLV-IIIB) and in the data set with HIV-2 (LAV-2 ROD) were 15 and 12, respectively.
With `C1CCNCCCNCCCNCCCNC1` [E, 1,5,9,14-tetrazacycloheptadecane], the CC50 at 120 h is 3.35 µg/mL (≈ 13.8 µM) in data set [1] (HIV-1, 5 days culture at 37°C) and 5.06 µg/mL (≈ 20.9 µM) in data set [1] (HIV-2, 5 days culture at 37°C). Further, the EC50 with HIV-1 (HTLV-IIIB) (setting [2]) is 1.3 µg/mL (≈ 5.36 µM); with HIV-2 (LAV-2 ROD), over 8 µg/mL. Moreover, the figures for the SI in the data set on HIV-1 (HTLV-IIIB) and in the data set with HIV-2 (LAV-2 ROD) were 3 and under 1, respectively.
“c-[Rh cyclam (NO₂)₂]Cl [reference compound]” returned an ED₅₀ with HIV-1 (HTLV-IIIB) (setting [2]) of over 250 µg/mL.
As to `C1CNCCCNCCCNCCCNC1` [D, 1,5,9,13-tetrazacyclohexadecane], the CC50 at 120 h in data set [1] (HIV-1, 5 days culture at 37°C) came to 11.2 µg/mL (≈ 49 µM); in data set [1] (HIV-2, 5 days culture at 37°C) it was 20.5 µg/mL (≈ 89.8 µM). Also, the EC50 with HIV-1 (HTLV-IIIB) (setting [2]) is 0.3 µg/mL (≈ 1.31 µM); in the data set with HIV-2 (LAV-2 ROD), over 40 µg/mL. Also, the SI in the data set with HIV-1 (HTLV-IIIB) is recorded as 37; in the data set with HIV-2 (LAV-2 ROD), under 1.
On to “Zn complex of 1,4,8,12-tetrazacyclopentadecane (Cl⁻) [G]”, for which the CD₅₀ in the data set on MT-4 cells (HIV-1, 5 days culture at 37°C) came out at 194.2 µg/mL; in the data set with MT-4 cells (HIV-2, 5 days culture at 37°C), 218.3 µg/mL. The results for the ED₅₀ with HIV-1 (HTLV-IIIB) (setting [2]) and in the data set on HIV-2 (LAV-2 ROD) were 6.96 µg/mL and over 1000.0 µg/mL, respectively.
[Cu cyclam]Cl₂ [X, reference compound] showed an ED₅₀ in the data set with HIV-1 (HTLV-IIIB) (setting [2]) of over 250 µg/mL.
On to `Cc1cn([C@H]2C[C@H](N=[N+]=[N-])[C@@H](CO)O2)c(=O)[nH]c1=O` [AZT, reference compound], for which the CC50 at 120 h in data set [1] (HIV-1, 5 days culture at 37°C) was over 1 µg/mL. For the same compound, in the data set on HIV-1 (HTLV-IIIB), the EC50 is under 0.008 µg/mL and the SI was over 125.
With “Zn complex of 1,5,9,13-tetrazacyclohexaadecane (Cl⁻) [Compound H]”, the CD₅₀ was found to be 46.9 µg/mL in the data set with MT-4 cells (HIV-1, 5 days culture at 37°C) and 46.9 µg/mL in the data set on MT-4 cells (HIV-2, 5 days culture at 37°C). The ED₅₀ with HIV-1 (HTLV-IIIB) (setting [2]) is 10.6 µg/mL; with HIV-2 (LAV-2 ROD), over 100.0 µg/mL.
